Experimental data: the supplement of paper PMC4862054

Legend:
Conditions in all cases: 72 h
[1] = system: BT-474
Procedure, shortened: (§1)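 Two sequential readouts followed a 72 h incubation of breast cancer cell lines with compound at 5 concentrations in 10-fold steps over a compound-specific 10,000-fold range: CellTox Green fluorescence (485/520 nm) for cell death, then CellTiter-Glo luminescence, after 10 min at room temperature, for viability. Each plate was normalised to 0.1 % DMSO and a positive kill control. Dose-response curves were fitted for EC50, censored at the top concentration.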

[2] = system: CAL-120
Procedure, shortened: as §1

[3] = system: CAL-148
Procedure, shortened: as §1

[4] = system: CAL-51
Procedure, shortened: as §1

[5] = system: HCC1143
Procedure, shortened: as §1

[6] = system: MCF-10A
Procedure, shortened: as §1

[7] = system: MDA-MB-231
Procedure, shortened: as §1

[8] = system: MDA-MB-436
Procedure, shortened: as §1

[9] = system: MDA-MB-468
Procedure, shortened: as §1

[10] = system: MFM-223
Procedure, shortened: as §1

[11] = system: CAL-148; remark: listed apart in the source
Procedure, shortened: (§2)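 The reported EC50 was fitted from percent-inhibition dose-response curves and censored at the highest concentration. Breast cancer cell lines (20 µl suspension) were added to 384-well plates containing compound in 5 µl medium and incubated 72 h, and viability was read with 2.5 µl CellTiter-Blue over 2 h at 37 °C at 560/590 nm. Each plate was normalised to vehicle and a positive kill control and checked by Z'-factor, and rows with zero drug sensitivity score were dropped.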

[12] = system: CAL-51; remark: listed apart in the source
Procedure, shortened: as §2

[13] = system: DU-4475
Procedure, shortened: as §2

[14] = system: HDQ-P1
Procedure, shortened: as §2

[15] = system: CAL-120; remark: listed apart in the source
Procedure, shortened: as §2

[16] = system: Hs578T
Procedure, shortened: as §2

[17] = system: MDA-MB-436; remark: listed apart in the source
Procedure, shortened: as §2

[18] = system: MFM-223; remark: listed apart in the source
Procedure, shortened: as §2

[19] = system: SK-BR-3
Procedure, shortened: as §2

[20] = system: CAL-148; remark: listed apart in the source
Description: (§3)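 Drug sensitivity and resistance testing (DSRT) of breast cancer cell lines in 384-well plates, 5 concentrations in 10-fold dilutions over a compound-specific 10,000-fold range. After 72 h, cytotoxicity was read by CellTox Green fluorescence and viability by CellTiter-Glo luminescence (multiplexed), normalised to DMSO and benzethonium chloride controls. EC50 is the inflection point of the fitted dose-response curve (bottom asymptote free, so it can be relative for partial curves) and is censored at the highest tested concentration. Rows with DSS 0 (no meaningful response) were excluded.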

[21] = system: CAL-51; remark: listed apart in the source
Description: as §3

[22] = system: HCC1143; remark: listed apart in the source
Description: as §3

[23] = system: MDA-MB-231; remark: listed apart in the source
Description: as §3

[24] = system: MDA-MB-468; remark: listed apart in the source
Description: as §3

[25] = system: BT-549
Procedure, shortened: as §1

[26] = system: CAL-85-1
Procedure, shortened: as §1

[27] = system: DU-4475; remark: listed apart in the source
Procedure, shortened: as §1

[28] = system: HCC1599
Procedure, shortened: as §1

[29] = system: MDA-MB-453
Procedure, shortened: as §1

[30] = system: SK-BR-3; remark: listed apart in the source
Procedure, shortened: as §1

[31] = system: BT-474; remark: listed apart in the source
Description: as §3

[32] = system: CAL-85-1; remark: listed apart in the source
Description: as §3

[33] = system: HCC1599; remark: listed apart in the source
Description: as §3

[34] = system: MDA-MB-453; remark: listed apart in the source
Description: as §3

[35] = system: MFM-223; remark: listed apart in the source
Description: as §3

[36] = system: HCC1937
Procedure, shortened: as §1

SMILES	EC50, CellTiter-Glo [1] [nM]	EC50, CellTiter-Glo [2] [nM]	EC50, CellTiter-Glo [3] [nM]	EC50, CellTiter-Glo [4] [nM]	EC50, CellTiter-Glo [5] [nM]	EC50, CellTiter-Glo [6] [nM]	EC50, CellTiter-Glo [7] [nM]	EC50, CellTiter-Glo [8] [nM]	EC50, CellTiter-Glo [9] [nM]	EC50, CellTiter-Glo [10] [nM]	EC50, CellTiter-Blue viability [11] [nM]	EC50, CellTiter-Blue viability [12] [nM]	EC50, CellTiter-Blue viability [13] [nM]	EC50, CellTiter-Blue viability [14] [nM]	EC50, CellTiter-Blue viability [15] [nM]	EC50, CellTiter-Blue viability [16] [nM]	EC50, CellTiter-Blue viability [17] [nM]	EC50, CellTiter-Blue viability [18] [nM]	EC50, CellTiter-Blue viability [19] [nM]	EC50, CellTox Green [20] [nM]	EC50, CellTox Green [21] [nM]	EC50, CellTox Green [22] [nM]	EC50, CellTox Green [23] [nM]	EC50, CellTox Green [24] [nM]	EC50, CellTiter-Glo [25] [nM]	EC50, CellTiter-Glo [26] [nM]	EC50, CellTiter-Glo [27] [nM]	EC50, CellTiter-Glo [28] [nM]	EC50, CellTiter-Glo [29] [nM]	EC50, CellTiter-Glo [30] [nM]	EC50, CellTox Green [31] [nM]	EC50, CellTox Green [32] [nM]	EC50, CellTox Green [33] [nM]	EC50, CellTox Green [34] [nM]	EC50, CellTox Green [35] [nM]	EC50, CellTiter-Glo [36] [nM]
COc1cc2c(Oc3ccc(NC(=O)C4(C(=O)Nc5ccc(F)cc5)CC4)cc3F)ccnc2cc1OCCCN1CCOCC1 [Foretinib]	145	179	610	490	317	854	600	> 1000	772	111	675	473	748	157	787	756	13.8	62.5	> 1000	712	251	693	129	374	–	–	–	–	–	–	–	–	–	–	–	–
CCCc1cc(C)[nH]c(=O)c1CNC(=O)c1cc(-c2ccnc(N3CCN(C)CC3)c2)cc2c1cnn2C(C)C [GSK343]	4570	–	1860	–	–	–	3820	5170	2980	7400	–	–	–	–	–	–	–	–	–	–	–	–	2280	–	3210	7160	2380	5170	2690	2750	3370	3440	> 10000	2680	227	–
CN1CCc2c(c3ccccc3n2Cc2ccc(C(=O)NO)cc2)C1 [Tubastatin A]	–	–	–	297	2350	–	–	–	–	–	–	–	–	–	–	–	–	–	–	–	2220	297	–	–	7980	6160	–	–	–	8820	> 10000	–	–	–	–	1600
